Test results from patent US20050074765A1, “Methods for identifying and using modulators of estrogen related receptor gamma” (priority 2002, published 2005).

Experiments:
[1] = molecular target: T1, ERRγ (Homo sapiens, UniProt P62508); assay: ERRγ direct binding assay ([3H]-tamoxifen competition, SPA); settings: found using FRET assay and direct binding assay in conjunction with the homology model
T1 construct: made in house; host or cells: E. coli BL21(DE3), pRSETa vector
T1 sequence (P62508 with tags, fused parts or gaps): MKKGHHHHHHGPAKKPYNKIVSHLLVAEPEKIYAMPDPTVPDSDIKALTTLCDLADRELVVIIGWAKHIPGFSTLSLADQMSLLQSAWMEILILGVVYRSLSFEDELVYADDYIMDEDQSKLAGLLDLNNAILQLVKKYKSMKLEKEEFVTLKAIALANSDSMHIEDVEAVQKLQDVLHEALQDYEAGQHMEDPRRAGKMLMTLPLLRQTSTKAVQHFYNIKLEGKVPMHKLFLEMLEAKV
From the text: The binding assay was developed with a different set of parameters than that of the LiSA assay. No common set of assay conditions is applicable to all nuclear receptors. Accordingly, parameters to be optimized included pH, detergents, carriers, and bead concentrations. By […] several variables at one time, a large number of conditions can be examined through the statistical capabilities of a program called JMP (SAS Institute, Cary N.C.). Multiple variables including, but not limited to, buffer, detergents, and carrier, were entered simultaneously Lnto the program with the goal being to increase specific counts while lowering non-specific counts.
The same ERRγ protein as set forth in Example 4 was used to develop the binding assay. The buffer for this system was prepared with 50 mM MOPS (pH 7), 50 mM KCl, and 1 mM EDTA, in 1 L of deionized water. This buffer was then filtered with the Corning (431205) filter system with a 0.22 μm cellulose Acetate filter. After filtering, 0.01% Tween20 was added. Before using the buffer in the assay, 10 mM DTT was added to the appropriate amount of buffer. Approximately 0.125 mg/ml SA-SPA beads (Wallac) were coated with 20 nM biotinylated ERRγ. […] These plates were then read on the Wallac Trilux scintillation counter.

[2] = molecular target: T2, ERRγ:RIP140 complex (Homo sapiens, UniProt P62508); assay: ERRγ:RIP140 FRET ligand sensing assay (LiSA); assay type: biochemical; settings: ERRγ LBD and RIP140 peptide, one to one ratio
T2 construct: made in house; host or cells: E. coli BL21(DE3), pRSETa vector; RIP140 peptide synthesised by SynPep
T2 sequence (P62508 with tags, fused parts or gaps): T1 sequence (P62508 with tags, fused parts or gaps)
Experimental: Before using the buffer in the assay, 10 mM DTT was added to the appropriate amount of buffer.

ligand for ERRγ [1]	dissociation of the receptor:cofactor interaction [2]	Compound
ligands for ERPγ	caused this dissociation	4-hydroxytamoxifen
ligands for ERPγ	–	CC/C(=C(/c1ccc(OCCN(C)C)cc1)c1cccc(O)c1)c1ccccc1 [3-hydroxytamoxifen]
